Laboratory results reported in US5830917A, “L-N^6 -(1-iminoethyl) lysine derivatives useful as nitric oxide synthase inhibitors” (G. D. Searle & Co., priority 1995, dated 1998).
Counter-ions that a name gives are not always drawn.

Legend:
[1] = target: T1, human endothelial constitutive NOS (hecNOS) (Homo sapiens, UniProt P29474); assay: Citrulline Assay for Nitric Oxide Synthase, hecNOS; assay type: biochemical; conditions: 37° C., 15 minutes, with calmodulin 40-100 nM
T1 construct: made in house; host or cells: insect cells, baculovirus vector
Description: (§1) Citrulline Assay for Nitric Oxide Synthase
(§2) Nitric oxide synthase activity was measured by monitoring the conversion of L-[2,3-3H]-arginine to L-[2,3-3H]-citrulline (1,2). The cDNA for human inducible NOS (hiNOS) was isolated from a λcDNA library made from RNA extracted from a colon sample from a patient with ulcerative colitis; human endothelial constitutive NOS (hecNOS) was isolated from a λcDNA library made from RNA extracted from human umbilical vein endothelial cells (HUVEC); and human neuronal constitutive NOS (hncNOS) was isolated from a λcDNA library made from RNA extracted from human cerebellum from a cadaver. The recombinant enzymes were expressed in insect cells using a baculovirus vector. Enzyme activity was isolated from cell extracts and partially purified by DEAE-Sepharose chromatography (2). Enzyme and inhibitors were added to give a volume of 50 μL in 50 mM Tris (pH 7.6) and the reaction initiated by the addition of 50 μL of a solution containing 50 mM Tris (pH 7.6), 2.0 mg/mL bovine serum albumin, 2.0 mM DTT, 4.0 mM CaCl2, 20 μM FAD, 100 μM tetrahydrobiopterin, 0.4-2.0 mM NADPH and 60 μM L-arginine containing 0.9 μCi of L-[2,3-3H]-arginine. […] The [3H]-citrulline was separated by chromatography on Dowex 50W X-8 cation exchange resin and radioactivity quantified with a liquid scintillation counter.

[2] = target: T2, human neuronal constitutive NOS (hncNOS) (Homo sapiens, UniProt P29475); assay: Citrulline Assay for Nitric Oxide Synthase, hncNOS; assay type: biochemical; conditions: 37° C., 15 minutes, with calmodulin 40-100 nM
T2 construct: made in house; host or cells: insect cells, baculovirus vector
Description: as §1, §2

[3] = target: T3, human inducible NOS (hiNOS) (Homo sapiens, UniProt P35228); assay: Citrulline Assay for Nitric Oxide Synthase, hiNOS; assay type: biochemical; conditions: 37° C., 15 minutes, L-[2,3-3H]-arginine to citrulline
T3 construct: made in house; host or cells: insect cells, baculovirus vector
Description: as §1, §2

[4] = system: constitutive and the inducible NO synthase; conditions: background statement; cited from earlier work

SMILES	IC50 [1] [µM]	IC50 [2] [µM]	IC50 [3] [µM]	selectivity between constitutive and inducible NO synthase [4]
CC(=N)NCCCC[C@H](N)CNC(=N)N [Example 2, N-[5S-amino-6-[(aminoiminomethyl)amino]hexyl]ethanimidamide, trihydrochloride]	479	35	22	
CC(=N)NCCCC[C@H](N)CNS(C)(=O)=O [Example 3, N-[5S-amino-6-[(methylsulfonyl)amino]hexyl]ethanimidamide, dihydrochloride]	6620	837	106	
CN=C(N)NCCC[C@H](N)C(=O)O [L-NMMA, L-N-monomethyl-arginine]				non-selective
